{"source": "paper PMC7071059", "about": "“Targeting Receptor Tyrosine Kinase VEGFR-2 in Hepatocellular Cancer: Rational Design, Synthesis and Biological Evaluation of 1,2-Disubstituted Benzimidazoles” (Molecules, 2020)", "test_in_all_cases": "NCI 60 one dose (10 μM) anticancer assay", "assay_type_in_all_cases": "cell-based", "key": {"CCRF-CEM": {"tested_on": "CCRF-CEM", "details": "Homo sapiens, 10 µM one dose, Leukemia, read-out: Growth Inhibition % CCRF-CEM", "description": "(§1) Some of the synthesized compounds were selected by the NCI, Bethesda, MD, USA for evaluation of their anticancer activity. An in vitro one dose (10 μM) anticancer assay was conducted on a full NCI 60-cell line panel derived from 9 different cancer types. Table 2 presents the percent of growth inhibition of some cell lines. […] K-562 and MOLT-4 from leukemia, NCI-H522 from non-small cell lung cancer, HCT-116 from colon cancer, SK-MEL-5 and UACC-62 from melanoma, UO-31 from renal cancer, PC-3 from prostate cancer and HS 578T and T-47D from breast cancer are the most sensitive cell lines to the tested compounds. No growth inhibition was observed from the selected compounds against COLO205, HCC-2998, MALME-3M, SK-MEL-28, DU-145 and BT-549 cell lines. […] Against UO-31 from renal cancer and PC-3 from prostate cancer, it inhibited the growth of 44% and 58% of the cancer cells, respectively."}, "TK-10": {"tested_on": "TK-10", "details": "Homo sapiens, 10 µM one dose, Renal Cancer, read-out: Growth Inhibition % TK-10", "description": "as §1"}, "HT29": {"tested_on": "HT29", "details": "Homo sapiens, HT-29; 10 µM one dose; Colon Cancer; read-out: Growth Inhibition % HT29", "description": "as §1"}, "U251": {"tested_on": "U251", "details": "Homo sapiens, U-251; 10 µM one dose; CNS Cancer; read-out: Growth Inhibition % U251", "description": "as §1"}, "SW-620": {"tested_on": "SW-620", "details": "Homo sapiens, 10 µM one dose, Colon Cancer, read-out: Growth Inhibition % SW-620", "description": "as §1"}, "HCT-116": {"tested_on": "HCT-116", "details": "Homo sapiens, 10 µM one dose, Colon Cancer, read-out: Growth Inhibition % HCT-116", "description": "as §1"}, "MDA-MB-231/ATTC": {"tested_on": "MDA-MB-231/ATTC", "details": "Homo sapiens, 10 µM one dose, Breast Cancer, read-out: Growth Inhibition % MDA-MB-231/ATTC", "description": "as §1"}, "BT-549": {"tested_on": "BT-549", "details": "Homo sapiens, 10 µM one dose, Breast Cancer, read-out: Growth Inhibition % BT-549", "description": "as §1"}, "NCI-H23": {"tested_on": "NCI-H23", "details": "Homo sapiens, 10 µM one dose, Non-small cell lung Cancer, read-out: Growth Inhibition % NCI-H23", "description": "as §1"}, "NCI/ADR-RES": {"tested_on": "NCI/ADR-RES", "details": "Homo sapiens, 10 µM one dose, Ovarian Cancer, read-out: Growth Inhibition % NCI/ADR-RES", "description": "as §1"}, "SF-268": {"tested_on": "SF-268", "details": "Homo sapiens, 10 µM one dose, CNS Cancer, read-out: Growth Inhibition % SF-268", "description": "as §1"}, "NCI-H522": {"tested_on": "NCI-H522", "details": "Homo sapiens, 10 µM one dose, Non-small cell lung Cancer, read-out: Growth Inhibition % NCI-H522", "description": "as §1"}, "M14": {"tested_on": "M14", "details": "Homo sapiens, 10 µM one dose, Melanoma, read-out: Growth Inhibition % M14", "description": "as §1"}, "OVCAR-5": {"tested_on": "OVCAR-5", "details": "Homo sapiens, 10 µM one dose, Ovarian Cancer, read-out: Growth Inhibition % OVCAR-5", "description": "as §1"}, "HS 578T": {"tested_on": "HS 578T", "details": "Homo sapiens, 10 µM one dose, Breast Cancer, read-out: Growth Inhibition % HS 578T", "description": "as §1"}, "SNB-75": {"tested_on": "SNB-75", "details": "Homo sapiens, 10 µM one dose, CNS Cancer, read-out: Growth Inhibition % SNB-75", "description": "as §1"}, "MDA-MB-468": {"tested_on": "MDA-MB-468", "details": "Homo sapiens, 10 µM one dose, Breast Cancer, read-out: Growth Inhibition % MDA-MB-468", "description": "as §1"}, "UACC-62": {"tested_on": "UACC-62", "details": "Homo sapiens, 10 µM one dose, Melanoma, read-out: Growth Inhibition % UACC-62", "description": "as §1"}, "NCI-H460": {"tested_on": "NCI-H460", "details": "Homo sapiens, 10 µM one dose, Non-small cell lung Cancer, read-out: Growth Inhibition % NCI-H460", "description": "as §1"}, "HCT-15": {"tested_on": "HCT-15", "details": "Homo sapiens, 10 µM one dose, Colon Cancer, read-out: Growth Inhibition % HCT-15", "description": "as §1"}, "MOLT-4": {"tested_on": "MOLT-4", "details": "Homo sapiens, 10 µM one dose, Leukemia, read-out: Growth Inhibition % MOLT-4", "description": "as §1"}, "A498": {"tested_on": "A498", "details": "Homo sapiens, 10 µM one dose, Renal Cancer, read-out: Growth Inhibition % A498", "description": "as §1"}, "SNB-19": {"tested_on": "SNB-19", "details": "Homo sapiens, 10 µM one dose, CNS Cancer, read-out: Growth Inhibition % SNB-19", "description": "as §1"}, "CAK1-1": {"tested_on": "CAK1-1", "details": "10 µM one dose; Renal Cancer; read-out: Growth Inhibition % CAK1-1", "description": "as §1"}, "KM12": {"tested_on": "KM12", "details": "Homo sapiens, 10 µM one dose, Colon Cancer, read-out: Growth Inhibition % KM12", "description": "as §1"}, "LOX IMVI": {"tested_on": "LOX IMVI", "details": "Homo sapiens, 10 µM one dose, Melanoma, read-out: Growth Inhibition % LOX IMVI", "description": "as §1"}, "786-0": {"tested_on": "786-0", "details": "Homo sapiens, 10 µM one dose, Renal Cancer, read-out: Growth Inhibition % 786-0", "description": "as §1"}, "EKVX": {"tested_on": "EKVX", "details": "Homo sapiens, 10 µM one dose, Non-small cell lung Cancer, read-out: Growth Inhibition % EKVX", "description": "as §1"}, "MCF7": {"tested_on": "MCF7", "details": "Homo sapiens, 10 µM one dose, Breast Cancer, read-out: Growth Inhibition % MCF7", "description": "as §1"}, "SR": {"tested_on": "SR", "details": "Homo sapiens, 10 µM one dose, Leukemia, read-out: Growth Inhibition % SR", "description": "as §1"}}, "data": [{"smiles": "CC(C)c1nc2ccccc2n1CC(=O)N/N=C/c1ccc(OCc2ccccc2)cc1", "note": "[Compound 17c, (E)-N′-(4-(Benzyloxy)benzylidene)-2-(2-isopropyl-1H-benzo[d]imidazol-1-yl)acetohydrazide]", "values": [{"measurement": "inhibition at 10 µM", "setting": "CCRF-CEM", "value": "< 10", "unit": "%"}, {"measurement": "inhibition at 10 µM", "setting": "TK-10", "value": "< 10", "unit": "%"}, {"measurement": "inhibition at 10 µM", "setting": "HT29", "value": "< 10", "unit": "%"}, {"measurement": "inhibition at 10 µM", "setting": "U251", "value": "< 10", "unit": "%"}, {"measurement": "inhibition at 10 µM", "setting": "SW-620", "value": "< 10", "unit": "%"}, {"measurement": "inhibition at 10 µM", "setting": "HCT-116", "value": 18, "unit": "%"}, {"measurement": "inhibition at 10 µM", "setting": "MDA-MB-231/ATTC", "value": "< 10", "unit": "%"}, {"measurement": "inhibition at 10 µM", "setting": "BT-549", "value": "< 10", "unit": "%"}, {"measurement": "inhibition at 10 µM", "setting": "NCI-H23", "value": "< 10", "unit": "%"}, {"measurement": "inhibition at 10 µM", "setting": "NCI/ADR-RES", "value": "< 10", "unit": "%"}, {"measurement": "inhibition at 10 µM", "setting": "SF-268", "value": "< 10", "unit": "%"}, {"measurement": "inhibition at 10 µM", "setting": "NCI-H522", "value": 26, "unit": "%"}, {"measurement": "inhibition at 10 µM", "setting": "M14", "value": "< 10", "unit": "%"}, {"measurement": "inhibition at 10 µM", "setting": "OVCAR-5", "value": "< 10", "unit": "%"}, {"measurement": "inhibition at 10 µM", "setting": "HS 578T", "value": 16, "unit": "%"}, {"measurement": "inhibition at 10 µM", "setting": "SNB-75", "value": "< 10", "unit": "%"}, {"measurement": "inhibition at 10 µM", "setting": "MDA-MB-468", "value": "< 10", "unit": "%"}, {"measurement": "inhibition at 10 µM", "setting": "UACC-62", "value": 26, "unit": "%"}, {"measurement": "inhibition at 10 µM", "setting": "NCI-H460", "value": "< 10", "unit": "%"}, {"measurement": "inhibition at 10 µM", "setting": "HCT-15", "value": "< 10", "unit": "%"}, {"measurement": "inhibition at 10 µM", "setting": "MOLT-4", "value": 25, "unit": "%"}, {"measurement": "inhibition at 10 µM", "setting": "A498", "value": "< 10", "unit": "%"}, {"measurement": "inhibition at 10 µM", "setting": "SNB-19", "value": "< 10", "unit": "%"}, {"measurement": "inhibition at 10 µM", "setting": "CAK1-1", "value": 15, "unit": "%"}, {"measurement": "inhibition at 10 µM", "setting": "KM12", "value": "< 10", "unit": "%"}, {"measurement": "inhibition at 10 µM", "setting": "LOX IMVI", "value": "< 10", "unit": "%"}, {"measurement": "inhibition at 10 µM", "setting": "786-0", "value": "< 10", "unit": "%"}, {"measurement": "inhibition at 10 µM", "setting": "EKVX", "value": "< 10", "unit": "%"}, {"measurement": "inhibition at 10 µM", "setting": "MCF7", "value": "< 10", "unit": "%"}, {"measurement": "inhibition at 10 µM", "setting": "SR", "value": "< 10", "unit": "%"}]}, {"smiles": "Cc1ccc(-c2nc3ccccc3n2CC(=O)N/N=C/c2ccc(OCc3ccccc3)cc2)o1", "note": "[Compound 17d, (E)-N′-(4-(Benzyloxy)benzylidene)-2-(2-(5-methylfuran-2-yl)-1H-benzo[d]imidazol-1-yl)acetohydrazide]", "values": [{"measurement": "inhibition at 10 µM", "setting": "CCRF-CEM", "value": "< 10", "unit": "%"}, {"measurement": "inhibition at 10 µM", "setting": "TK-10", "value": "< 10", "unit": "%"}, {"measurement": "inhibition at 10 µM", "setting": "HT29", "value": "< 10", "unit": "%"}, {"measurement": "inhibition at 10 µM", "setting": "U251", "value": "< 10", "unit": "%"}, {"measurement": "inhibition at 10 µM", "setting": "SW-620", "value": "< 10", "unit": "%"}, {"measurement": "inhibition at 10 µM", "setting": "HCT-116", "value": "< 10", "unit": "%"}, {"measurement": "inhibition at 10 µM", "setting": "MDA-MB-231/ATTC", "value": 18, "unit": "%"}, {"measurement": "inhibition at 10 µM", "setting": "BT-549", "value": "< 10", "unit": "%"}, {"measurement": "inhibition at 10 µM", "setting": "NCI-H23", "value": "< 10", "unit": "%"}, {"measurement": "inhibition at 10 µM", "setting": "NCI/ADR-RES", "value": "< 10", "unit": "%"}, {"measurement": "inhibition at 10 µM", "setting": "SF-268", "value": 23, "unit": "%"}, {"measurement": "inhibition at 10 µM", "setting": "NCI-H522", "value": 27, "unit": "%"}, {"measurement": "inhibition at 10 µM", "setting": "M14", "value": "< 10", "unit": "%"}, {"measurement": "inhibition at 10 µM", "setting": "OVCAR-5", "value": "< 10", "unit": "%"}, {"measurement": "inhibition at 10 µM", "setting": "HS 578T", "value": 32, "unit": "%"}, {"measurement": "inhibition at 10 µM", "setting": "SNB-75", "value": 20, "unit": "%"}, {"measurement": "inhibition at 10 µM", "setting": "MDA-MB-468", "value": "< 10", "unit": "%"}, {"measurement": "inhibition at 10 µM", "setting": "UACC-62", "value": "< 10", "unit": "%"}, {"measurement": "inhibition at 10 µM", "setting": "NCI-H460", "value": "< 10", "unit": "%"}, {"measurement": "inhibition at 10 µM", "setting": "HCT-15", "value": 25, "unit": "%"}, {"measurement": "inhibition at 10 µM", "setting": "MOLT-4", "value": 40, "unit": "%"}, {"measurement": "inhibition at 10 µM", "setting": "A498", "value": 17, "unit": "%"}, {"measurement": "inhibition at 10 µM", "setting": "SNB-19", "value": "< 10", "unit": "%"}, {"measurement": "inhibition at 10 µM", "setting": "CAK1-1", "value": 21, "unit": "%"}, {"measurement": "inhibition at 10 µM", "setting": "KM12", "value": "< 10", "unit": "%"}, {"measurement": "inhibition at 10 µM", "setting": "LOX IMVI", "value": 17, "unit": "%"}, {"measurement": "inhibition at 10 µM", "setting": "786-0", "value": "< 10", "unit": "%"}, {"measurement": "inhibition at 10 µM", "setting": "EKVX", "value": 21, "unit": "%"}, {"measurement": "inhibition at 10 µM", "setting": "MCF7", "value": 19, "unit": "%"}, {"measurement": "inhibition at 10 µM", "setting": "SR", "value": 16, "unit": "%"}]}]}
